Source: patent US9963518B2, “Cyclic oligosaccharides for use in the treatment and prevention of bacterial infection” (priority 2011, dated 2018)
Like-named read-outs stand apart in the source and are kept apart here.

Tests used:
WT Wza = WT Wza (Escherichia coli, UniProt Q9X4B7); assay: Single-channel electrical recording, blockers against wt-Wza in planar lipid bilayers; format: binding, E. coli; conditions: for Interaction with WT Wza: 2M KCl, 5 mM HEPES, 100 μM EDTA, 200 μM DTT, pH 7.5
Protocol: The Wt Wza transporter was tested in single-channel recording, in accordance with the procedures of Naismith (Nature 2006, 444, 226-229) for its ability to form pores in planar lipid bilayers. Sequential insertions of channels in a single orientation were used to measure the conductance of a single channel because more than one channel could insert simultaneously during the first introduction, especially when protein molecules have not properly diffused yet. Repetition of experiments helped to verify conductance of a single channel. […] After collection of 37 insertions of wt Wza channel, the current of a single channel of wt Wza in 2 M KCl buffer was determined to be 1.89±0.01 pA (n=37) on average, corresponding to 18.9±0.1 pS (n=37) in conductance.
(§1) Thirteen commercial cyclodextrins (CDs) were tested for their ability to block WT-Wza and the mutant Y110G/K375C (Table 1) including, neutral, negatively charged or positively charged cyclodextrins. Testing was carried out using electrical channel recording in high salt buffer (2M KCl, 5 mM HEPES, 100 μM EDTA, 200 μM DTT) at pH 7.5.

Wza Y110G/K375C = Wza Y110G/K375C (Escherichia coli, UniProt Q9X4B7, K375C/Y110G); assay: Single-channel electrical recording, blockers against mutant Wza Y110G/K375C; format: binding, E. coli; conditions: Y110G/K375C; for Kd: n = 3, 2M KCl buffer pH 7.5
Protocol: The Wza pore was opened by replacing the tyrosines at position 110 that line the narrowest region of the lumen with glycine. To confirm that the currents observed indeed arose from the mutant pore, a cysteine was introduced in the α-helix barrel (Y110G/K375C) and would therefore yield a characteristic reversible blockade when derivatized with a suitable thiol-specific reagent.
The unitary conductance of the Y110G/K375C pore was determined as for wt-Wza, by measuring stepwise-insertion using the same technique referenced above. The mean open current of Y110G/K375C was determined to be +85±14.1 pA (+50 mV, n=31), corresponding to 1.70±0.28 nS (+50 mV, n=31) in conductance.
as §1

E. coli strain E69 = assay: LPS exposure assay, O9a LPS to O9a LPS-specific antibodies (FACS); format: cell-based; conditions: 1 mM, antiserum incubation 1 h; for LPS exposure by median fluorescence intensity: relative to CWG281 positive control
Protocol: The direct effect of the inhibition of K30 CPS transport on E. coli strain E69 is the appearance of defects in the capsule layer. This should in turn lead to exposure of O9a LPS at the cell surface. To test this hypothesis, the attachment of rabbit anti-O9a antibodies was quantified by flow cytometry (FACS), by using secondary fluorescent anti-rabbit antibodies. The design of the experiment is depicted schematically in FIG. 4a.
E. coli strains E69 and CWG281 were grown as described above in Example 4 and the OD600 was adjusted to 0.4. The concentrations of cyclodextrin (either am8γCD (compound 13), am6αCD (compound 3) or am7βCD (compound 10)) present in the growth media were 10 nM, 100 nM, 1 μM, 10 μM, 50 μM, 100 μM and 1 mM. 50 μL samples of each were centrifuged at 3,000×g for 10 min to remove the medium, washed with PBS and resuspended in 50 μL PBS. O9a antiserum (0.5 μL) was then added. The mixtures were incubated on ice for 1 h (to compare the effects of am6αCD, am7βCD and am8γCD on the exposure of LPS) or 2 h (for the estimation of minimum effective concentration of am8γCD required to expose LPS to antibodies), followed by centrifugation at 3,000×g for 10 min and washing with PBS. The pellets were resuspended in PBS (50 μL), to which Alexa Fluor 488 Goat Anti-Rabbit IgG secondary antibody (1 μL, Life Technologies, A11034, λex 495 nm, λem 519 nm) was added, followed by incubation for 1 h on ice. The cells were then centrifuged at 3,000×g for 10 min. The pellets were resuspended in PBS (1 mL), followed by analysis by flow cytometry (FACS) using a Becton-Dickinson FACSCalibur. 10,000 cells were analysed for each sample. Fluorescence was measured in the FL1 channel (530 nm).

SMILES | Kd (WT Wza) | Kd (Wza Y110G/K375C; Kd, interaction with mutant Wza, +3 mV) | Kd (Wza Y110G/K375C; Kd, interaction with mutant Wza, +75 mV) | Interaction with WT Wza (WT Wza) | LPS exposure by percentage of labelled cells (E. coli strain E69) | LPS exposure by median fluorescence intensity (E. coli strain E69) | Interaction with mutant Wza (Wza Y110G/K375C; 2M KCl, 5 mM HEPES, 100 μM EDTA, 200 μM DTT, pH 7.5) | Kd (Wza Y110G/K375C; +3 mV, read-out: Kd, interaction with mutant Wza)
NC[C@H]1O[C@@H]2O[C@H]3[C@H](O)[C@@H](O)[C@@H](O[C@H]4[C@H](O)[C@@H](O)[C@@H](O[C@H]5[C@H](O)[C@@H](O)[C@@H](O[C@H]6[C@H](O)[C@@H](O)[C@@H](O[C@H]7[C@H](O)[C@@H](O)[C@@H](O[C@H]8[C@H](O)[C@@H](O)[C@@H](O[C@H]1[C@H](O)[C@H]2O)O[C@@H]8CN)O[C@@H]7CN)O[C@@H]6CN)O[C@@H]5CN)O[C@@H]4CN)O[C@@H]3CN [compound 4] | 13000 µM | 2900 µM | 2100 µM |  |  |  |  | 
NCC1OC2OC3C(CN)OC(OC4C(CN)OC(OC5C(CN)OC(OC6C(CN)OC(OC7C(CN)OC(OC1C(O)C2O)C(O)C7O)C(O)C6O)C(O)C5O)C(O)C4O)C(O)C3O (stereo not drawn) [No. 3, hexakis (6-amino-6-deoxy)-α-cyclodextrin] |  |  |  | not observed | 36% | 3.2% |  | 
NC[C@H]1O[C@@H]2O[C@H]3[C@H](O)[C@@H](O)[C@@H](O[C@H]4[C@H](O)[C@@H](O)[C@@H](O[C@H]5[C@H](O)[C@@H](O)[C@@H](O[C@H]6[C@H](O)[C@@H](O)[C@@H](O[C@H]7[C@H](O)[C@@H](O)[C@@H](O[C@H]8[C@H](O)[C@@H](O)[C@@H](O[C@H]1[C@H](O)[C@H]2O)O[C@@H]8CN)O[C@@H]7CN)O[C@@H]6CN)O[C@@H]5CN)O[C@@H]4CN)O[C@@H]3CN [No. 4, heptakis (6-amino-6-deoxy)-β-cyclodextrin] |  |  |  | not observed | 9% | 1.8% | not observed^b | 2900 ± 1800 µM
